Reference: paper PMC4598118 (PLoS ONE, 2015)
Values joined by “and” are separate entries in the source; they are usually repeats but may differ in a detail not shown here. Equal values may be shown once. Read-outs that look alike come from different tables or passages of the source. Marks after values point to notes of the source that are not given here.

Key:
[1] = molecular target: T1, Anopheles gambiae AChE1-G119S (Anopheles gambiae, UniProt Q869C3, G280S); type: biochemical
[2] = molecular target: T2, Mus musculus AChE (mAChE) (Mus musculus, UniProt P21836); conditions: cited from earlier work
[3] = molecular target: Aedes aegypti AChE1 (AaAChE1) (Aedes aegypti, UniProt Q6A2E2); type: biochemical
[4] = molecular target: Anopheles gambiae AChE1 (AgAChE1) (Anopheles gambiae, UniProt Q869C3); type: biochemical
[5] = molecular target: T1, Anopheles gambiae AChE1-G119S; conditions: cited from earlier work
[6] = molecular target: T3, Homo sapiens AChE (hAChE) (Homo sapiens, UniProt P22303); type: biochemical
[7] = molecular target: T2, Mus musculus AChE (mAChE); type: biochemical
[8] = molecular target: T3, Homo sapiens AChE (hAChE); conditions: cited from earlier work
[9] = test system: AChE1 vs vertebrate AChEs; type: biochemical
AgAChE1-G119S [10] = molecular target: T4, AgAChE1-G119S (Anopheles gambiae, UniProt Q869C3, G280S); type: biochemical
AgAChE1 = AgAChE1 (Anopheles gambiae, UniProt Q869C3); type: biochemical
mAChE [11] = molecular target: T5, mAChE (Mus musculus, UniProt P21836); type: biochemical
AaAChE1 [12] = molecular target: T6, AaAChE1 (Aedes aegypti, UniProt Q6A2E2); type: biochemical
hAChE [13] = molecular target: T7, hAChE (Homo sapiens, UniProt P22303); type: biochemical
AaAChE1 [14] = molecular target: T6, AaAChE1; assay: biochemical
mAChE [15] = molecular target: T5, mAChE; conditions: read-out: IC 50-values of reversible inhibitors; cited from earlier work
hAChE [16] = molecular target: T7, hAChE; conditions: read-out: IC 50-values of reversible inhibitors; cited from earlier work
mAChE [17] = molecular target: T5, mAChE; assay: biochemical; conditions: IC 50-values of reversible inhibitors
AgAChE1-G119S [18] = molecular target: T4, AgAChE1-G119S; conditions: cited from earlier work

For `CC(=O)SCC[N+](C)(C)C` [ATChI, acetylthiocholine iodide], the Vmax [1] is listed as 318 (310–326) mA/min, the “Vmax in percent of Vmax(ATChI)” value [1] is listed as 100^a percent of Vmax(ATChI) and the Kcat [2] is listed as 2333^c s^-1. The Km [3] was 25 µM, the Vmax [3] was 406 (389–422) mA/min and the “Vmax in percent of Vmax(ATChI)” value [3] was 100^a percent of Vmax(ATChI). For the same compound, the Km [4] was 27 µM, the Vmax [4] was 528 (505–552) mA/min and the “Vmax in percent of Vmax(ATChI)” value [4] was 100^a percent of Vmax(ATChI). The Kcat [5] was 4^b s^-1, the Km [6] was 146 µM and the Vmax [6] was 821 (782–860) mA/min. For the same compound, the “Vmax in percent of Vmax(ATChI)” value [6] was 100^a percent of Vmax(ATChI), the Km [7] was 84 µM and the Vmax [7] was 725 (694–756) mA/min. The “Vmax in percent of Vmax(ATChI)” value [7] was 100^a percent of Vmax(ATChI) and the Kcat [8] was 6167^d s^-1.

With `CNC(=O)Oc1ccc2c(c1)[C@]1(C)CCN(C)[C@@H]1N2C` [Eserine, eserine] the “fold more potent on AChE1 than on vertebrate AChEs (k i)” value [9] was “approximately 10 fold”, the “ki-values of covalent inhibitors” value (AgAChE1-G119S [10]) was 1.18 (0.63–1.72) μM^-1 min^-1 and 1,18 μM^-1 min^-1 and the “ki-values of covalent inhibitors” value (AgAChE1) was 27.3 (23.8–30.8) μM^-1 min^-1 and 27,26 μM^-1 min^-1. For the same compound, the “ki-values of covalent inhibitors” value (mAChE [11]) was 1.36 (1.15–1.56) μM^-1 min^-1 and 1,36 μM^-1 min^-1, the “ki-values of covalent inhibitors” value (AaAChE1 [12]) was 24.8 (18.1–31.5) μM^-1 min^-1 and 24,8 μM^-1 min^-1 and the “ki-values of covalent inhibitors” value (hAChE [13]) was 2.66 (2.28–3.05) μM^-1 min^-1 and 2,66 μM^-1 min^-1.

For `CCN1CCC[C@@H]1CNC(=O)c1cc([N+](=O)[O-])c(N(C)C)cc1OC` [C5685R], the IC50 (AaAChE1 [14]) is listed as over 30 µM, the IC50 (mAChE [15]) is listed as 0.7 µM and the IC50 (hAChE [16]) is listed as 1.3 µM.

In the case of `CCC(=O)SCC[N+](C)(C)C` [PTChI, propionylthiocholine iodide], the Vmax [1] is reported as 105 (87–123) mA/min, the Km [3] is reported as 20 µM and the Vmax [3] is reported as 266 (258–275) mA/min. The “Vmax in percent of Vmax(ATChI)” value [3] was 65,5^a percent of Vmax(ATChI), the Km [4] was 25 µM and the Vmax [4] was 407 (393–421) mA/min. For the same compound, the “Vmax in percent of Vmax(ATChI)” value [4] was 77,1^a percent of Vmax(ATChI), the Km [6] was 150 µM and the Vmax [6] was 429 (415–442) mA/min. The “Vmax in percent of Vmax(ATChI)” value [6] was 52,3^a percent of Vmax(ATChI), the Km [7] was 59 µM and the Vmax [7] was 367 (354–380) mA/min. For the same compound, the “Vmax in percent of Vmax(ATChI)” value [7] was 50,6^a percent of Vmax(ATChI).

For `CCN(CC)C(C)CN1c2ccccc2Sc2ccccc21` (centres unmarked) [Ethopropazine, ethopropazine], the IC50 (mAChE [17]) was about 1000 µM.

For `CCN1CCC[C@H]1CNC(=O)c1cc([N+](=O)[O-])c(N(C)C)cc1OC` [C5685S], the IC50 (mAChE [15]) is given as 0.7 µM and the IC50 (hAChE [16]) is given as 1.4 µM.

With `CCCC(=O)SCC[N+](C)(C)C` [BTChI, butyrylthiocholine iodide] the Vmax [1] was 34 (24–45) mA/min, the Km [3] was 45 µM and the Vmax [3] was 38 (36–40) mA/min. The Km [4] was 36 µM and the Vmax [4] was 58 (55–61) mA/min.

For `CNC(=O)Oc1ccccc1OC(C)C` [Propoxur, propoxur], the “fold lower inhibition constants than eserine” value [9] is listed as 15–30 fold, the “fold more potent on AChE1 than on vertebrate AChEs (k i)” value [9] is listed as “approximately 10 fold” and the ki (AgAChE1-G119S [18]) is listed as 0,00015^b µM^-1 min^-1. The “inhibition of the G119S mutant” value (AgAChE1-G119S [10]) was “only marginal inhibition”, the “ki-values of covalent inhibitors” value (AgAChE1) was 1.11 (1.02–1.21) μM^-1 min^-1 and 1,11 μM^-1 min^-1 and the “ki-values of covalent inhibitors” value (AaAChE1 [12]) was 1.20 (1.05–1.35) μM^-1 min^-1 and 1,2 μM^-1 min^-1.
